In experiment [1] the test system is gram negative (G (−)) bacteria (Aggregatibacter actinomycetemcomitans, Fusobacterium nucleatum, Porphyromonas gingivalis). Nature of the experiment: photodynamic therapy bacterial disinfection assay in vitro, G (−) bacteria. In kind it is cell-based. Conditions: photosensitizer plus infrared laser ray 808 nanometers, irradiating about 5 minutes, in vitro (FIG. 8). The source says:
(§1) One group assay represents the different bacterial disinfection by using the photodynamic therapy method in vitro with a specific irradiated wavelength of the light, and the other group assay represents the different bacterial disinfection by using the photodynamic therapy method in vitro with a specific compound X and the specific irradiated wavelength of the light. […] The light is infrared laser ray. The specific irradiated wavelength of the infrared laser ray of is 808 nanometers. The specific compound X is a photosensitizer. The photosensitizer is the indocyanine green dye. The period of irradiating the bacteria is about 5 minutes. The bacteria include gram positive (G (+)) bacteria and gram negative (G (−)) bacteria. The G (+) bacteria include a Streptococcus mutans (S. mutans) and a Streptococcus sobrinus (S. sobrinus). The G (−) bacteria include an Aggregatibacter actinomycetemcomitans (A. actinomycetemcomitans), a Fusobacterium nucleatum (F. nucleatum), and a Porphyromonas gingivalis (P. gingivalis).

In experiment [2] the test system is gram positive (G (+)) bacteria (Streptococcus mutans, Streptococcus sobrinus). Kind of experiment: photodynamic therapy bacterial disinfection assay in vitro, G (+) bacteria. It is filed as cell-based. Conditions: photosensitizer plus infrared laser ray 808 nanometers, irradiating about 5 minutes, in vitro (FIG. 8).
From the text: as §1

SMILES strings stand for the structures.

Turning to `CC1(C)C(/C=C/C=C/C=C/C=C2\N(CCCCS(=O)(=O)O)c3ccc4ccccc4c3C2(C)C)=[N+](CCCCS(=O)(=O)[O-])c2ccc3ccccc3c21` [compound X, indocyanine green], the “percentage growth rate of the bacteria” value in experiment [1] is “less than 20%”; in experiment [2], “zero”.

These data come from patent publication US20180178031A1, “DENTAL DEVICE AND PHOTODYNAMIC THERAPEUTIC SYSTEM USING SAME” (priority 2016, published 2018).
